Laboratory results as given in ChEMBL document CHEMBL1154560, “New sesquiterpene/quinones from two sponges of the genus Hyrtios” (J Nat Prod, 2000).
In brackets after ≈: the same amount, converted by molar mass.

Test: Toxicity in Artemia larvae
Format: organism-based
Conditions: in vivo, read-out: LD50 (the source's name)

Row | SMILES | LC50 [µg/mL]
1 | C=C1CCC[C@H]2[C@](C)(CC3=C(O)C(=O)C=C(OC)C3=O)[C@@H](C)CC[C@@]12C | 4 (≈ 11.2 µM)
2 | COC1=CC(=O)C(O)=C(C[C@]2(C)[C@@H](C)CC[C@]3(C)C(C)=CCC[C@@H]23)C1=O [ISOSPONGIAQUINONE] | 2 (≈ 5.58 µM)
